Laboratory results from PMC5666424, “Marine-Derived 2-Aminoimidazolone Alkaloids. Leucettamine B-Related Polyandrocarpamines Inhibit Mammalian and Protozoan DYRK & CLK Kinases” (Marine Drugs, 2017).

Key:
Test in all cases: KinomeScan
Format in all cases: binding
Conditions in all cases: 1 μM
ABL1-phosphorylated = target: T1, ABL1-phosphorylated (Homo sapiens, UniProt P00519)
T1 construct: purchased DiscoverX (KINOMEscan)

ABL2 = target: T2, ABL2 (Homo sapiens, UniProt P42684)
T2 construct: purchased DiscoverX (KINOMEscan)

AXL = target: T3, AXL (Homo sapiens, UniProt P30530)
T3 construct: purchased DiscoverX (KINOMEscan)

BRAF(V600E) = target: T4, BRAF(V600E) (Homo sapiens, UniProt P15056, V600E)
T4 construct: purchased DiscoverX (KINOMEscan)

CDK4-cyclinD3 = target: T5, CDK4-cyclinD3 (Homo sapiens, UniProt P11802)
T5 construct: purchased DiscoverX (KINOMEscan)

CIT = target: T6, CIT (Homo sapiens, UniProt O14578)
T6 construct: purchased DiscoverX (KINOMEscan)

DAPK1 = target: T7, DAPK1 (Homo sapiens, UniProt P53355)
T7 construct: purchased DiscoverX (KINOMEscan)

DRAK1 = target: T8, DRAK1 (Homo sapiens, UniProt Q9UEE5)
T8 construct: purchased DiscoverX (KINOMEscan)

EGFR(G719C) = target: T9, EGFR(G719C) (Homo sapiens, UniProt P00533, G719C)
T9 construct: purchased DiscoverX (KINOMEscan)

EGFR(T790M) = target: T10, EGFR(T790M) (Homo sapiens, UniProt P00533, T790M)
T10 construct: purchased DiscoverX (KINOMEscan)
T10 sequence (P00533 25-1210 T790M): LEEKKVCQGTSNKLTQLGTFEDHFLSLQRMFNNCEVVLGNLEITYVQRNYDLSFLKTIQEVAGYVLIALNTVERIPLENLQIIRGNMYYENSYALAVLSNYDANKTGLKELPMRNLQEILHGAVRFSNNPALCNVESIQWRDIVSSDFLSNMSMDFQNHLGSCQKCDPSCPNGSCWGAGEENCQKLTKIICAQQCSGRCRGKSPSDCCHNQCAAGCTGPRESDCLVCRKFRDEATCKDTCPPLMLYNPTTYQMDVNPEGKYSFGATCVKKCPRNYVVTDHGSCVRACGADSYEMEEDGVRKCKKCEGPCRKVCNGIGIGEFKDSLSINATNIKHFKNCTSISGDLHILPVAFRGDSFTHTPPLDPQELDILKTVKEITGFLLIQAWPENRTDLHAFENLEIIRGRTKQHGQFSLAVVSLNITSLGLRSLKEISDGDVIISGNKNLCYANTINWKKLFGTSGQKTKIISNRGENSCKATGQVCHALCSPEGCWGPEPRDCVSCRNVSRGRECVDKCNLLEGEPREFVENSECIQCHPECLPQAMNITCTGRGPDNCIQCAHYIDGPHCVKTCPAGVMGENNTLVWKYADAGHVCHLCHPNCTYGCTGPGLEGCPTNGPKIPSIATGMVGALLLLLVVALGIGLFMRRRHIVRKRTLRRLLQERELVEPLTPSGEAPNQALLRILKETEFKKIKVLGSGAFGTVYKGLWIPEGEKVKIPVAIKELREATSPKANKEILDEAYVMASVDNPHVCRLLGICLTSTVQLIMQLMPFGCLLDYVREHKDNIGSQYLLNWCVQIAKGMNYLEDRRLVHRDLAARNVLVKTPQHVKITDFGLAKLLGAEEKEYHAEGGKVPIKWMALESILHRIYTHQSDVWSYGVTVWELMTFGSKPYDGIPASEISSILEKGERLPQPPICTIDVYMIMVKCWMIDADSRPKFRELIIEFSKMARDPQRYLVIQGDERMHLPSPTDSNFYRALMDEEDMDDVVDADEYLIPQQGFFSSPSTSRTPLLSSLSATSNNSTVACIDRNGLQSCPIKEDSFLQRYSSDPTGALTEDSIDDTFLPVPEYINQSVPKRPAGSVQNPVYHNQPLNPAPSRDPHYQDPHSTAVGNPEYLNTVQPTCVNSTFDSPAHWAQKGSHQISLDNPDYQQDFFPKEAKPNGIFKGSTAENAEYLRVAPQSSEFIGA

EPHA6 = target: T11, EPHA6 (Homo sapiens, UniProt Q9UF33)
T11 construct: purchased DiscoverX (KINOMEscan)
T11 sequence (Q9UF33 23-1036): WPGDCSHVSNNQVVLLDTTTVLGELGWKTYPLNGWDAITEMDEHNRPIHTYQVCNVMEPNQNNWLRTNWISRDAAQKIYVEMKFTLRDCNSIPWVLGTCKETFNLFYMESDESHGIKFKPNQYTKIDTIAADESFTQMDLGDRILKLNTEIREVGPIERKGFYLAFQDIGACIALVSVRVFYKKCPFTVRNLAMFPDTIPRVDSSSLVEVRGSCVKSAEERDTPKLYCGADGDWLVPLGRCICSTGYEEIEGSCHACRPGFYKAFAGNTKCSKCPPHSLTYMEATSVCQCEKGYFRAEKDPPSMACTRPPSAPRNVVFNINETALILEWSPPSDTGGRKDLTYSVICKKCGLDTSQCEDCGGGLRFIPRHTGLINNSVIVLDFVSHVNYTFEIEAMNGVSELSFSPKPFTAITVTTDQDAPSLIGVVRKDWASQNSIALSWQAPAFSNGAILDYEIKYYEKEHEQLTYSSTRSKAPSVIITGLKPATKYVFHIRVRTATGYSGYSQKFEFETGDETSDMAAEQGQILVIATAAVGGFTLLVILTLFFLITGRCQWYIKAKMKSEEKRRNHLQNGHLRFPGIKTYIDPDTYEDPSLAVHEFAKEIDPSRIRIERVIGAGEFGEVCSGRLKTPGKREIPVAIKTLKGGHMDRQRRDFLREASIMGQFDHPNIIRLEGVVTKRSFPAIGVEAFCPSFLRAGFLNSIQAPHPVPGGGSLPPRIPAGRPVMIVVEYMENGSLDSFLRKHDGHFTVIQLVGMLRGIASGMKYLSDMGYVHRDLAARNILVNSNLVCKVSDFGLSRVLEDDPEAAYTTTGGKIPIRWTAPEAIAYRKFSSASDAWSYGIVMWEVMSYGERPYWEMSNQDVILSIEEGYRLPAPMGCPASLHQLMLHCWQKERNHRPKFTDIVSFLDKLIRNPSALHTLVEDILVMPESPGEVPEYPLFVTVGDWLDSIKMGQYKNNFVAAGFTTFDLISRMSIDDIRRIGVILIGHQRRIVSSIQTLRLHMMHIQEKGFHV

ERK3 = target: T12, ERK3 (Homo sapiens, UniProt Q16659)
T12 construct: purchased DiscoverX (KINOMEscan)
T12 sequence (Q16659 whole entry): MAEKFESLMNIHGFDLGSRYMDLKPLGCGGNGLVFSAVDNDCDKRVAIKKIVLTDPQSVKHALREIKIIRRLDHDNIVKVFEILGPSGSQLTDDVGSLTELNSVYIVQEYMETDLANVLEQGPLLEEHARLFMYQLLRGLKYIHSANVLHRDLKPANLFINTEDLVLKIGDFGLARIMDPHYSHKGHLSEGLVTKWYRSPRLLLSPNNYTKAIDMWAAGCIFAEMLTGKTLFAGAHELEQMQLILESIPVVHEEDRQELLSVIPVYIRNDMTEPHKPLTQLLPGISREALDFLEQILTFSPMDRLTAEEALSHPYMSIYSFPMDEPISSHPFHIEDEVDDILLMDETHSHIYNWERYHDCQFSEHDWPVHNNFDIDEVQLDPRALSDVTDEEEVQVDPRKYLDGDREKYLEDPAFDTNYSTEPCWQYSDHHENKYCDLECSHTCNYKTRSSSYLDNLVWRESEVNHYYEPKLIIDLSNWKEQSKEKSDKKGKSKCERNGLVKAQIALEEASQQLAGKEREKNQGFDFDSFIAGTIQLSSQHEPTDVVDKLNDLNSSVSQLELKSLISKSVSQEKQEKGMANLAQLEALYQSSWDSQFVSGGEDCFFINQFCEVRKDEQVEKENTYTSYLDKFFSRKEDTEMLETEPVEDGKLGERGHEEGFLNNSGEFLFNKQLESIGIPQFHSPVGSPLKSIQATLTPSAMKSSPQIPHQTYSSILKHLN

ERK4 = target: T13, ERK4 (Homo sapiens, UniProt P31152)
T13 construct: purchased DiscoverX (KINOMEscan)

FYN = target: T14, FYN (Homo sapiens, UniProt P06241)
T14 construct: purchased DiscoverX (KINOMEscan)

GSK3A = target: T15, GSK3A (Homo sapiens, UniProt P49840)
T15 construct: purchased DiscoverX (KINOMEscan)

JNK2 = target: T16, JNK2 (Homo sapiens, UniProt P45984)
T16 construct: purchased DiscoverX (KINOMEscan)

KIT = target: T17, KIT (Homo sapiens, UniProt P10721)
T17 construct: purchased DiscoverX (KINOMEscan)

KIT(A829P) = target: T18, KIT(A829P) (Homo sapiens, UniProt P10721, A829P)
T18 construct: purchased DiscoverX (KINOMEscan)

LTK = target: T19, LTK (Homo sapiens, UniProt P29376)
T19 construct: purchased DiscoverX (KINOMEscan)

LYN = target: T20, LYN (Homo sapiens, UniProt P07948)
T20 construct: purchased DiscoverX (KINOMEscan)

LZK = target: T21, LZK (Homo sapiens, UniProt O43283)
T21 construct: purchased DiscoverX (KINOMEscan)
T21 sequence (O43283 whole entry): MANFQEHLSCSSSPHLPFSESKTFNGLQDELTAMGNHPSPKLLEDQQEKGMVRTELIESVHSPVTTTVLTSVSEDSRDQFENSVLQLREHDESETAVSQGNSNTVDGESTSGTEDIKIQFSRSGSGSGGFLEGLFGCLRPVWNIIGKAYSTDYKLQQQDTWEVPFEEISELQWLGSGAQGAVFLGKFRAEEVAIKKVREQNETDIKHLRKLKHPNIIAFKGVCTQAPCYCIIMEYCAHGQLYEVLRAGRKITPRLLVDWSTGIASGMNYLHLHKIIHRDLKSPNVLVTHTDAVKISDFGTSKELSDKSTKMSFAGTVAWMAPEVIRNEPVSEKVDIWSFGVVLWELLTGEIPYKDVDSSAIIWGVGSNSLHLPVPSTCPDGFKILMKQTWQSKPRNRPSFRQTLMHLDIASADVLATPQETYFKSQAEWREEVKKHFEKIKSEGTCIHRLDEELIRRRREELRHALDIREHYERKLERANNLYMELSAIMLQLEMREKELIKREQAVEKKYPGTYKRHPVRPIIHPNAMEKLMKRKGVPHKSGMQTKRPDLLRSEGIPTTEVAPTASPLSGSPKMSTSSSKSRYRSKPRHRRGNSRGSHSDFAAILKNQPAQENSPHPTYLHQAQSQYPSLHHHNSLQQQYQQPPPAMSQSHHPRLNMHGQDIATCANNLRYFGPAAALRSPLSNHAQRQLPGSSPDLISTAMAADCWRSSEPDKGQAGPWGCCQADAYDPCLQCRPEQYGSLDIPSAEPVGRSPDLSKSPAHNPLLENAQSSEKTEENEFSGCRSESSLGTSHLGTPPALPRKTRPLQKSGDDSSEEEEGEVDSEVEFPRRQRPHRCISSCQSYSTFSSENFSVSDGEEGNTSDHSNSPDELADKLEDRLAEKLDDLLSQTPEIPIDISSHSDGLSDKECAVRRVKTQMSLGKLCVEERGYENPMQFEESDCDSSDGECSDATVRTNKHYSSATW

MAPKAPK2 = target: T22, MAPKAPK2 (Homo sapiens, UniProt P49137)
T22 construct: purchased DiscoverX (KINOMEscan)

MEK1 = target: T23, MEK1 (Homo sapiens, UniProt Q02750)
T23 construct: purchased DiscoverX (KINOMEscan)

MEK4 = target: T24, MEK4 (Homo sapiens, UniProt P45985)
T24 construct: purchased DiscoverX (KINOMEscan)

MST1R = target: T25, MST1R (Homo sapiens, UniProt Q04912)
T25 construct: purchased DiscoverX (KINOMEscan)

MST2 = target: T26, MST2 (Homo sapiens, UniProt Q13188)
T26 construct: purchased DiscoverX (KINOMEscan)

MYLK = target: T27, MYLK (Homo sapiens, UniProt Q15746)
T27 construct: purchased DiscoverX (KINOMEscan)

NEK1 = target: T28, NEK1 (Homo sapiens, UniProt Q96PY6)
T28 construct: purchased DiscoverX (KINOMEscan)

NEK6 = target: T29, NEK6 (Homo sapiens, UniProt Q9HC98)
T29 construct: purchased DiscoverX (KINOMEscan)

PIM2 = target: T30, PIM2 (Homo sapiens, UniProt Q9P1W9)
T30 construct: purchased DiscoveRx (KinomeScan, San Diego, CA, USA)

SGK3 = target: T31, SGK3 (Homo sapiens, UniProt Q96BR1)
T31 construct: purchased DiscoverX (KINOMEscan)

SRPK1 = target: T32, SRPK1 (Homo sapiens, UniProt Q96SB4)
T32 construct: purchased DiscoverX (KINOMEscan)

TAOK3 = target: T33, TAOK3 (Homo sapiens, UniProt Q9H2K8)
T33 construct: purchased DiscoverX (KINOMEscan)

TGFBR2 = target: T34, TGFBR2 (Homo sapiens, UniProt P37173)
T34 construct: purchased DiscoverX (KINOMEscan)

TIE2 = target: T35, TIE2 (Homo sapiens, UniProt Q02763)
T35 construct: purchased DiscoverX (KINOMEscan)
T35 sequence (Q02763 23-1124): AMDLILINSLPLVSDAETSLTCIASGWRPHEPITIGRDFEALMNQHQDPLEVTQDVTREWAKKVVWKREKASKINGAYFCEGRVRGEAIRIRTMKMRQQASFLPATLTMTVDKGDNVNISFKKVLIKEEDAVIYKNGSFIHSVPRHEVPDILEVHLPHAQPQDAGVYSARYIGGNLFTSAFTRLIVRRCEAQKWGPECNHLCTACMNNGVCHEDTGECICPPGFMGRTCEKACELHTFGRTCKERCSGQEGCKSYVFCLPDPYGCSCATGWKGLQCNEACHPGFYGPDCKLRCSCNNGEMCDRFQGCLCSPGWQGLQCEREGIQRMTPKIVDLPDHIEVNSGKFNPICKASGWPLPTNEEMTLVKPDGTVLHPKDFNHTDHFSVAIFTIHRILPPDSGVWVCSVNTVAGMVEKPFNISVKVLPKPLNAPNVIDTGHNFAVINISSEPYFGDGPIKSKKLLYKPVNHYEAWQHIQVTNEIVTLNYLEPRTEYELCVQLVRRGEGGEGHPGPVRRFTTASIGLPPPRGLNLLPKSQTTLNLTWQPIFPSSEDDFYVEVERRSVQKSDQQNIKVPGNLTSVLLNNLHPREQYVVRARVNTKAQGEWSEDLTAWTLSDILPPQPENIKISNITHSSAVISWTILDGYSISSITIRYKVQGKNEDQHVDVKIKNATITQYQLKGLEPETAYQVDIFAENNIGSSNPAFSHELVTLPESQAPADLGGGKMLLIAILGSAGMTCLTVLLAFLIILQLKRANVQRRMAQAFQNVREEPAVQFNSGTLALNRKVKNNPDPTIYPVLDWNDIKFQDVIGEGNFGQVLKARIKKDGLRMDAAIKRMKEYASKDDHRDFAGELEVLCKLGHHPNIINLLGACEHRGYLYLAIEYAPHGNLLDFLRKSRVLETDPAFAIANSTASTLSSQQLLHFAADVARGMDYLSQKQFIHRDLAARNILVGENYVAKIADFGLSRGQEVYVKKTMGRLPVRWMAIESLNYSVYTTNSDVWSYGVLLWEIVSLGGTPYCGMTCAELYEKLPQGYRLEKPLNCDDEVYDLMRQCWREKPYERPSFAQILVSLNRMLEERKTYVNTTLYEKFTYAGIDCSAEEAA

TNK1 = target: T36, TNK1 (Homo sapiens, UniProt Q13470)
T36 construct: purchased DiscoverX (KINOMEscan)

WEE1 = target: T37, WEE1 (Homo sapiens, UniProt P30291)
T37 construct: purchased DiscoverX (KINOMEscan)

## COc1cc(/C=C2\N=C(N)NC2=O)ccc1O [Polyandrocarpamine A]
ABL1-phosphorylated
  Score: 100
ABL2
  Score: 87
AXL
  Score: 100
BRAF(V600E)
  Score: 96
CDK4-cyclinD3
  Score: 98
CIT
  Score: 100
DAPK1
  Score: 79
DRAK1
  Score: 42
EGFR(G719C)
  Score: 95
EGFR(T790M)
  Score: 93
EPHA6
  Score: 100
ERK3
  Score: 82
ERK4
  Score: 100
FYN
  Score: 100
GSK3A
  Score: 100
JNK2
  Score: 100
KIT
  Score: 87
KIT(A829P)
  Score: 91
LTK
  Score: 100
LYN
  Score: 89
LZK
  Score: 100
MAPKAPK2
  Score: 100
MEK1
  Score: 100
MEK4
  Score: 100
MST1R
  Score: 100
MST2
  Score: 100
MYLK
  Score: 98
NEK1
  Score: 100
NEK6
  Score: 100
PIM2
  Score: 21
SGK3
  Score: 100
SRPK1
  Score: 100
TAOK3
  Score: 87
TGFBR2
  Score: 100
TIE2
  Score: 98
TNK1
  Score: 100
WEE1
  Score: 100
